From US8741932B2, “Imidazopyridine derivatives” (Piramal Enterprises Limited, priority 2009, dated 2014) come the findings set out here.

pIC50: −log10 of the molar value.

In test [1] the target is T1, PI3Kα kinase (Homo sapiens, UniProt P42336).
T1 construct: purchased Millipore, USA
Description: Kinase assay (PI3Kα). The format is biochemical. To be noted: read-out: IC50 (μM) for PI3K inhibition. The essentials: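 Recombinant PI3Kα (20 ng) phosphorylated 12.5 μg phosphatidylinositol with 10 μM ATP and 1 μCi ^32γ P […] in 10 mM Hepes pH 7.5, 50 mM MgCl2 for 20 min at 30° C. Lipids were extracted with MeOH/CHCl3, resolved by TLC, and labelled PI quantified by autoradiography densitometry; PI-103 served as standard.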

For test [2], the system named is SKOV3. Put plainly: Cytotoxicity assay (propidium iodide), SKOV3. The format is cell-based. To be noted: Homo sapiens, SK-OV-3; SKOV3 (C3b, ovarian); 48 hours.
Description: (§3) Cells from cell lines as mentioned in the table given below were seeded at a density of 3000 cells/well in a white opaque 96-well plate. Following incubation at 37° C./5% CO2 for a period of 18-24 hours, the cells were treated with various concentrations (stock solution was prepared in DMSO and subsequent dilutions were made in media as per ATCC guidelines) of the representative compounds of present invention (refer table 3) for a period of 48 hours. At the end of treatment, the spent culture medium was discarded, the cells were washed with 1×PBS and 200 μl of 7 μg/ml propidium iodide was added to each well. The plates were frozen at −70° C. for at least 24 hours. For analysis, the plates were brought to RT, allowed to thaw and were read in PolarStar fluorimeter with the fluorescence setting. The percentage of viable cells in the non treated set of wells was considered to be 100 and the percentage viability following treatment was calculated accordingly. IC50 values were calculated from graphs plotted using these percentages.
For test [3], the system named is CAPAN1. Put plainly: Cytotoxicity assay (propidium iodide), CAPAN1. The format is cell-based. Conditions: Homo sapiens, CAPAN-1; CAPAN1 (C5b, pancreatic); 48 hours.
Description: as §3
For test [4], the system named is FaDu. Put plainly: Cytotoxicity assay (propidium iodide), FaDu. Type of test: cell-based. To be noted: Homo sapiens; FaDu (C11a, hypopharyngeal); 48 hours.
Description: as §3
For test [5], the system named is IL-6. Description: Human monocyte assay, LPS-stimulated IL-6. Type of test: cell-based. Conditions: Monocyte; human monocytes, 1 μg/ml LPS, 5 hours. In short, it runs like this: (§1)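 Adherent human PBMC-derived monocytes (2×10^4/well) were cultured 48 h, preincubated 30 min with compound or 0.5% DMSO, then stimulated with 1 μg/ml E. coli LPS for 5 h at 37° C. TNF-α and IL-6 in supernatants were measured by ELISA.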

For test [6], the system named is TNF-α. Put plainly: Human monocyte assay, LPS-stimulated TNF-α. Type of test: cell-based. To be noted: human monocytes, 1 μg/ml LPS, 5 hours. The essentials: as §1
In test [7] the test system is IL-6. Put plainly: Synovial tissue assay, IL-6. Type of test: cell-based. Conditions: Homo sapiens; synovial tissue cells from rheumatoid arthritis patients, 16 hours. In short, it runs like this:
(§2)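 Collagenase-digested synovial cells from rheumatoid arthritis patients (1×10^6 cells/ml, RPMI with 5% FBS and 5% human AB serum) incubated 16 h at 37° C with compounds at 0.01–100 μM, 0.5% DMSO. Cytokines in supernatants measured by ELISA; cytotoxicity by MTS at 490 nm versus DMSO-treated cells.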

Test [8] relates to TNF-α. Put plainly: Synovial tissue assay, TNF-α. The format is cell-based. Conditions: Homo sapiens; synovial tissue cells from rheumatoid arthritis patients, 16 hours. In short, it runs like this: as §2
The test system of test [9] is IL-8. Description: Synovial tissue assay, IL-8. To be noted: Homo sapiens; synovial tissue cells from rheumatoid arthritis patients, 16 hours. Type of test: cell-based. In short, it runs like this: as §2
The test system of test [10] is H460. Put plainly: Cytotoxicity assay (propidium iodide), H460. Type of test: cell-based. Conditions: Homo sapiens, NCI-H460; H460 (C1b, lung); 48 hours.
The subject of test [11] is MDA MB 231. Description: Cytotoxicity assay (propidium iodide), MDA MB 231. Type of test: cell-based. Conditions: Homo sapiens; MDA MB 231 (C6a, breast); 48 hours.
Description: as §3
For test [12], the system named is MCF7. Put plainly: Cytotoxicity assay (propidium iodide), MCF7. Type of test: cell-based. Conditions: Homo sapiens; MCF7 (C6c, breast); 48 hours.
Description: as §3
The test system of test [13] is PC3. Description: Cytotoxicity assay (propidium iodide), PC3. To be noted: Homo sapiens, PC-3, 48 h, read-out: IC50 cytotoxicity.
Description: as §3

T1 sequence (P42336 whole entry): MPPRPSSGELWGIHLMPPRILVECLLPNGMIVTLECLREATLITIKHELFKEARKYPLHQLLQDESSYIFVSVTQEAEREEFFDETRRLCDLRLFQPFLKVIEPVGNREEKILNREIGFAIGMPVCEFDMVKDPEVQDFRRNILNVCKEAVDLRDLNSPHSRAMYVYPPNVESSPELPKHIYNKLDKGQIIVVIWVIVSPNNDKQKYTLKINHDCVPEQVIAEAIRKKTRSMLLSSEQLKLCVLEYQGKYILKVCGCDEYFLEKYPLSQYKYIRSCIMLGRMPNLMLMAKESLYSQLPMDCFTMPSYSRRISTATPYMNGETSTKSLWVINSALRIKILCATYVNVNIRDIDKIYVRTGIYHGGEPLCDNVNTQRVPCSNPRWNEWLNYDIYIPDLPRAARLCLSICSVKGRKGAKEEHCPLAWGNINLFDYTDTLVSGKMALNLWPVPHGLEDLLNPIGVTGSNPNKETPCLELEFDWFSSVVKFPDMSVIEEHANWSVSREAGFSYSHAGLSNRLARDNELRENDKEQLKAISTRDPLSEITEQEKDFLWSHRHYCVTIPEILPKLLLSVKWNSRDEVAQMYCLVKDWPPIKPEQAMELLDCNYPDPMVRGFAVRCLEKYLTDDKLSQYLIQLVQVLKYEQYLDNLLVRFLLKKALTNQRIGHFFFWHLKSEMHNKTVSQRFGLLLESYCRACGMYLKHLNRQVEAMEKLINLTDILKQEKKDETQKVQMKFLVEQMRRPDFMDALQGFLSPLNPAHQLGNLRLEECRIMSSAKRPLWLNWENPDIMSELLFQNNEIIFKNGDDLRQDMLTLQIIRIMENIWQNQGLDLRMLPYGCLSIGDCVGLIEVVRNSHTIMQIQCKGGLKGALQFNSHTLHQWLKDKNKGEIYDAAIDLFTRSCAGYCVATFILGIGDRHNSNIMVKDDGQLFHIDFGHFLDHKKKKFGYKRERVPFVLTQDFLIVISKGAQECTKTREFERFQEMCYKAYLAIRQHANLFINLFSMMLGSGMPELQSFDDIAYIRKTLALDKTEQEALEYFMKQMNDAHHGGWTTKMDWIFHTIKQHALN
T1 sequence (P27986 whole entry partner): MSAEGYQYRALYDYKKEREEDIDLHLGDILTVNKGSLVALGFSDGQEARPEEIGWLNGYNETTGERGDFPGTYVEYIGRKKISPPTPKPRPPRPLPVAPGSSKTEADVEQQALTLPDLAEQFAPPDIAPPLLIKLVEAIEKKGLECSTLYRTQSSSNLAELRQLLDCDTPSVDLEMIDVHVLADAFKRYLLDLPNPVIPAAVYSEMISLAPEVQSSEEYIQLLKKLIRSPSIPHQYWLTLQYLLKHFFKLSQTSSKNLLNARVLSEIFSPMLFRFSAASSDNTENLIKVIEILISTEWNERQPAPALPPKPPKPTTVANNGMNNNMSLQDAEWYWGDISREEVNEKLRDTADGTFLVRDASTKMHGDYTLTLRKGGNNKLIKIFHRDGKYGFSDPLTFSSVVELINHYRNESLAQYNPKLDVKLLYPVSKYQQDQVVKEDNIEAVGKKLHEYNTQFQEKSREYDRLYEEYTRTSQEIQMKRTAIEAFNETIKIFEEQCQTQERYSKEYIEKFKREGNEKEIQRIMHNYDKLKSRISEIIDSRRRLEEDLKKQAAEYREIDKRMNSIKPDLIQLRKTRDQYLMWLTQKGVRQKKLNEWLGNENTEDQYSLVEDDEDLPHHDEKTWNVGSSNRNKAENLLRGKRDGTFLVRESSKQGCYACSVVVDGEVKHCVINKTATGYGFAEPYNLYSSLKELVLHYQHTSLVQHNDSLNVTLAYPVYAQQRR

In general, IC50 refers to the concentration at which inhibition is half-maximal. What is called pIC50 is −log10 of the IC50, conventionally taken in molar units. For the molecule `CN(N=Cc1cnc2ccc(-c3cccnc3)cn12)S(=O)(=O)c1cccc(F)c1` [Example 5, 3-Fluoro-N-methyl-N′-((6-(pyridine-3-yl)imidazo[1,2-a]pyridine-3-yl)methylene)benzenesulfonohydrazide], the 50% inhibitory concentration (IC50) in test [1] was 0.5 to 1 µM; in test [5] it was 0.001 to 5 µM; in test [7] it was 0.01 to 0.3 µM; in [8] it was 0.01 to 0.3 µM; in test [9] it was 0.3 to 3 µM. Besides, the pIC50 was 5.30 to 8.00 in test [2], 5.30 to 8.00 in test [3], 5.30 to 8.00 in test [4] and 4.82 to 6.00 in test [6].

On to `CN(N=Cc1cnc2ccc(-c3cccnc3)cn12)S(=O)(=O)c1ccc(F)cc1` [Example 6, 4-Fluoro-N-methyl-N′-((6-(pyridine-3-yl)imidazo[1,2-a]pyridine-3-yl)methylene)benzenesulfonohydrazide], for which the IC50 was in the range of 0.5 to 1 µM in test [1]; 0.001 to 5 µM in [5]; 0.3 to 3 µM in test [7]; 0.01 to 0.3 µM in test [8]; 0.3 to 3 µM in [9]. Besides, the pIC50 in [3] was 5.30 to 8.00; in [4] it was 5.30 to 8.00; in test [6], 6.00 to 9.00.

`CN(N=Cc1cnc2ccc(-c3cccnc3)cn12)S(=O)(=O)c1cc(F)cc(F)c1` [Example 16, 3,5-Difluoro-N-methyl-N′-((6-(pyridine-3-yl)imidazo[1,2-a]pyridine-3-yl)methylene) benzenesulfonohydrazide]: the IC50 in test [1] is 0.5 to 1 µM; in test [5] it was 0.001 to 5 µM; in [7], 0.01 to 0.3 µM; in [8], 0.01 to 0.3 µM; in test [9], 0.3 to 3 µM. This molecule gave a negative-log IC50 (pIC50) in test [6] of 6.00 to 9.00.

In the case of `Cc1ccc(F)cc1S(=O)(=O)N(C)N=Cc1cnc2ccc(-c3cccnc3)cn12` [Example 21, 5-Fluoro-N, 2-dimethyl-N′-((6-(pyridine-3-yl)imidazo[1,2-a]pyridine-3-yl)methylene) benzenesulfonohydrazide], the IC50 in test [1] was 0.01 to 0.5 µM; in test [5], 0.001 to 5 µM; in [7], 0.01 to 0.3 µM; in [8], 0.01 to 0.3 µM; in test [9], 0.01 to 0.3 µM. Moreover, the negative logarithm of the IC50 (pIC50) is 5.30 to 8.00 in test [10]; 5.30 to 8.00 in [2]; 5.30 to 8.00 in [3]; 5.30 to 8.00 in test [11]; 5.30 to 8.00 in test [12]; 6.00 to 9.00 in test [6]. In test [13], the negative logarithm of the IC50 (pIC50) was 5.30 to 8.00.

As to `Cc1ccc([N+](=O)[O-])cc1S(=O)(=O)N(C)N=Cc1cnc2ccc(-c3cccnc3)cn12` [Example 25], the IC50 lay within 0.01 to 0.5 µM in test [1]; 0.001 to 5 µM in test [5]; 0.01 to 0.3 µM in [7]; 0.01 to 0.3 µM in test [8]; 0.3 to 3 µM in test [9]. Also, the negative-log IC50 (pIC50) in [10], in test [2], in test [3], in [11], in [12] and in test [13] was 5.30 to 8.00 in each case.
